# In patent publication US9084770B2, “Modulation of insulin like growth factor I receptor expression in cancer” (Antisense Therapeutics, Ltd., priority 2008, dated 2015):
# Marks after values point to notes of the source that are not given here.
# Tests used:
# [1] = test system: IGF-IR mRNA; settings: other cell lines, dose-dependent and sequence specific; cited from earlier work
# [2] = test system: IGF-IRβ, p-AKT, pERK1/2; assay: PC3 xenograft tumor proteins, western blotting; assay type: in vivo; settings: after 7 days of treatment; two of three mice
# Experimental: Total PC3 xenograft tumor proteins were extracted after the treatment of IGFI-R antisense oligonucleotide or control oligodeoxynucleotide for 7 days and IGF-IRβ, p-AKT, pERK1/2, and vinculin protein levels were analyzed by western blotting. Tumor growth ratio of corresponding tumors are also shown (FIG. 5E).
# [3] = test system: Ptx-R PC3 cells; assay: Ptx-R PC3 viable cells after transfection with or without Paclitaxel; assay type: cell-based, human
# Experimental: The number of viable PC3 and PtxR PC3 cells was determined 72 hours after the second transfection.
# […] The number of viable cells remaining was determined 72 hours after the second transfection treatment. ATL1101 treatment enhances the Ptx-R sensitivity to Paclitaxel under standard culture conditions. For example, there was approximately 45% cell viability with 100 nM Paclitaxel and 25 nM control oligodeoxynucleotide whereas, only 25 nM Paclitaxel is needed in the presence of 25 nM ATL1101 to produce the same reduction in cell viability.
# [4] = test system: IGF-IRB subunit; assay: IGF-IRB immunoblot in PC3 cells with or without Paclitaxel; assay type: cell-based, human; settings: 50 nM, with or without 1 nM Paclitaxel
# Description: Vinculin expression is shown as a loading control.
# [5] = test system: LNCaP tumors; assay: LNCaP xenograft after castration, tumor volume and serum PSA; assay type: in vivo, mice; settings: 15 mg/kg i.p. once daily for 7 days and 3 times per week thereafter; vs control oligodeoxynucleotide
# Experimental: One million PC-3 or LNCaP cells were injected subcutaneously in athymic mice. For LNCaP xenografts, when PSA values exceeded 50 ng/ml, mice were castrated and randomly selected for treatment with ATL1101 or control oligodeoxynucleotide (15 mg/kg) injected i.p. once daily for 7 days and 3 times per week thereafter. Blood samples were obtained from the tail vein of the mice once weekly to measure serum PSA by ELISA. For PC-3 xenografts, when tumors reached 100 mm^3, mice were randomly selected and treated with the same protocol as LNCaP.
# The effects of IGF-IR antisense oligonucleotide treatment in LNCaP and PC-3 tumors in vivo are show in FIGS. 5A-5C. LNCaP cells were inoculated s.c. and when PSA values exceeded 50 ng/ml, mice were castrated and randomly selected for treatment with ATL1101 or control oligodeoxynucleotide (15 mg/kg) injected i.p. once daily for 7 days and 3 times per week thereafter. Blood samples were obtained from the tail vein of the mice once weekly to measure serum PSA by ELISA. PC-3 cells were inoculated s.c. and when tumors reached 100 mm^3, mice were randomly selected for treatment with the same protocol as LNCaP. Each point represents the mean tumor volume in each group containing 10 mice; bars, SE. * differs from control oligodeoxynucleotide treatment group (p<0.05) by Student's t test.
# [6] = test system: IGF-IR mRNA; assay: IGF-IR mRNA expression in transfected LNCaP and PC-3 cells, quantitative RT-PCR; assay type: cell-based, human; settings: one day after treatment
# Experimental: (§1) Established methods were used to test the activity of IGF-IR antisense oligonucleotide on LNCaP and PC-3 cell growth (crystal violet assay) and apoptosis (FACS). Dose- and sequence-specific suppression of IGF-IR mRNA and protein expression in ATL1101-treated LNCaP and PC3 PC cell lines in vitro were observed by QT-PCR and western blotting. Effects of the IGF-IR antisense oligonucleotide on various putative targets, including IGF-IR and downstream targets were evaluated using western blotting.
# FIGS. 1A(i)-1A(ii) show the sequence-specific and dose-dependent suppression of IGF-IR mRNA expression levels by ATL1101 in LNCaP (FIG. 1A (i)) and PC-3 (FIG. 1A (ii)) cells. […] One day after treatment, total RNA was extracted, and IGF-IR mRNA expression was analyzed by quantitative RT-PCR. IGF-IR mRNA levels were normalized to levels of GAPDH mRNA and expressed here as mean±SE. ***, p<0.001 differ from control (oligofectamine only) by Student's t test. “Control” cells were treated with oligofectamine only. In LNCaP cells, IGF-IR expression was >70% suppressed by 10 nM ATL1101 and >90% at 200 nM ATL1101. In PC3 cells, IGF-IR expression was suppressed ˜40% at 10 nM ATL1101, >50% at 50 nM ATL1101 and ˜80% at 200 nM. Control oligodeoxynucleotide (ISIS 306064) did suppress IGF-IR mRNA expression but by less than 25% at maximal doses tested
# [7] = test system: PC3 cells; assay: PC3 cell cycle and apoptosis, flow cytometry with propidium iodide; assay type: cell-based, human; settings: PC3, FBS condition, 200 nM
# Experimental: as §1
# (§2) The Effect of IGF-IR silencing with IGF-IR antisense oligonucleotide (ATL1101) on LNCaP and PC3 cell apoptosis and cell cycle is shown in FIGS. 4A(i)-(ii), 4B, 4C(i)-(ii), and Table 2. Cells were transfected with indicated concentrations of ATL1101, control oligodeoxynucleotide or oligofectamine as in FIGS. 1A(i)-1B(ii). Two days after treatment, cell cycle analysis was determined by flow cytometry using propidium iodide staining. […] In FIGS. 4C(i)-(ii), LNCaP (FIG. 4C (i)) or PC-3 (FIG. 4C (ii)) cells were transfected with indicated concentration of ATL1101 or control oligodeoxynucleotide (ISIS 306064) for two days. Cells were then cultured in FBS media for one day and in serum-free media for one day. Whole cell lysates (30 μg) were subjected to SDS-PAGE and immunoblotted to assess Cyclin D1, Cyclin E, p-RB, total Rb, and p27 protein levels. Oligo, oligofectamine treated cells only.
# [8] = test system: PC3 cells; assay: PC3 cell viability, crystal violet assay; assay type: cell-based, human; settings: FBS media, achieved by 100 nM, three days after treatment
# Experimental: as §1
# Cells were transfected with indicated concentrations of ATL1101, control oligodeoxynucleotides or oligofectamine as in FIGS. 1A(i)-1A(ii). Three days after treatment, cell viability was determined by crystal violet assay. Viable cell density was normalized to that of cells treated with oligofectamine. Points, means of triplicate analysis; bars, SE. *, p<0.05 differs from control oligodeoxynucleotide treatment group. **, p<0.01 differs from control oligodeoxynucleotide treatment group by Student's t test.
# [9] = test system: Cyclin D1, Cyclin E, p-RB, p27; assay: Cell cycle proteins in LNCaP and PC-3 cells, immunoblot; assay type: cell-based, human
# Experimental: as §2
substance,measurement,setting,value
"cgaaggaaacaatactccga (CGAAGGAAACAATACTCCGA; 2'-MOE modified, pattern not given here) [ISIS 175317, 2′-MOE-modified IGF-IR antisense oligonucleotide, also known as ATL1101]",inhibition of IGF-IR mRNA expression,[1],significantly inhibit
same,IGF-IR expression in tumor,[2],decreased
same,activation of AKT and ERK1/2 in tumor,[2],suppressed
same,Paclitaxel concentration needed to produce the same reduction in cell viability (approximately 45% viability),[3]; in the presence of 25 nM ATL1101,25 nM
same,sensitivity of viable cell number to ATL1101,"[3]; up to 250 nM, 72 hours after second transfection, standard culture conditions",retain ATL1101 sensitivity
same,IGF-IRB levels,[4],specifically reduced
same,PSA rise rates after castration,[5],significantly delayed
same,tumor growth after castration,[5],significantly delayed
same,suppression of IGF-IR mRNA expression,"[6]; LNCaP cells, 10 nM",> 70%
same,suppression of IGF-IR mRNA expression,"[6]; LNCaP cells, 200 nM",> 90%
same,suppression of IGF-IR mRNA expression,"[6]; PC3 cells, 10 nM",~40%
same,suppression of IGF-IR mRNA expression,"[6]; PC3 cells, 50 nM",> 50%
same,suppression of IGF-IR mRNA expression,"[6]; PC3 cells, 200 nM",~80%
same,"% of total cells, G0/G1",[7],19.3%
same,"% of total cells, G2/M",[7],8.4%
same,"% of total cells, S",[7],9.8%
same,"% of total cells, Sub G0/G1",[7],62.5%
same,subG0/G1 + G0/G1:S + G2/M,[7],4.5**
same,maximum reduction of cell viability relative to control,[8],~60%
same,"activation of Cyclin D1, Cyclin E, p-RB",[9],suppressed
same,p27 protein production,[9],increased
